Source: US20240398783A1, “Compounds and Pharmaceutical Compositions Comprising Inhibitors of Amyloid Peptide Interactions with Glycosaminoglycans, Methods of Treatment and Use Thereof” (Gismo Therapeutics, Inc., priority 2021, published 2024)
Where a name gives a salt, the structure may show the parent alone.

biological target: Amyloid-beta(1-40) binding to heparin (HS-GAG) (Homo sapiens, UniProt P05067); assay: Inhibition of Amyloid-beta(1-40) binding to immobilized heparin-BSA (ELISA); parameters: species or system porcine; settings: 30 μM compound; Abeta(1-40), heparin-BSA; read-out: Abeta40/Heparin Activity (% inhibition class)
Protocol: Porcine intestinal mucosa heparin conjugated to Bovine Serum Albumin (Heparin-BSA) was prepared as described (Najjam, S. et al. 1997, Cytokine 12, 1013-1022). Heparin is a sulfated HS-GAG and is commonly used as a HS-GAG in biochemical and binding assays (Lindahl, U. and Kjellen, L. (2013) ibid). Heparin-BSA at 0.01 mg/ml in Phosphate Buffered Saline (PBS; pH 7.4) was added to a 96 well polystyrene ELISA plate (NUNC Cat. No. 449824; 100 μl per well) and incubated Over Night (ON) at 4 degrees Celsius. For negative controls, ELISA plates were coated with BSA instead of Heparin-BSA, using the same procedure. Following the incubation, the plate was washed consecutively, by immersion, with de-ionized water and PBS (pH 7.4). The ELISA plate was then blocked with nonfat milk (2%, 200 μl per well) for 2 hours at Room Temperature (RT) with gentle shaking. Following blocking, the plate was washed with de-ionized water then PBS (pH 7.4). GBAPs were dissolved and diluted in PBS (pH 6.5, supplemented with 0.1% BSA) at desired concentrations, added to the ELISA plates containing immobilized Heparin-BSA (100 μl per well) and incubated for 2 hours at RT with gentle shaking. Following incubation, the plate was washed with de-ionized water and three times with PBS (pH 6.5) plus Tween. Bound GBAP was detected by a monoclonal antibody specific for that GBAP, followed by incubation with secondary antibody conjugated to horseradish peroxidase (HRP). Antibody was diluted in PBS (pH 6.5 supplemented with 1% BSA). Following each incubation with antibody, the plate was washed with de-ionized water and three times with PBS (pH 6.5) wash buffer containing 0.1% Tween. The peroxidase substrate chromogen, TMB (Dako Cat. No. S1599) was added (100 μl per well) to the ELISA plate and incubated at room temperature. After 5 minutes ELISA Stop Solution (hydrochloric acid 1N, sulfuric acid 3N) was added (100 μl per well) to stop the peroxidase catalyzed colorimetric reaction. The Optical Density of the samples was measured at 450 nm using an ELISA plate reader (BioTek Synergy H1). Following color development, the % inhibition compared to control (BSA-coated plates) was determined. IC-50s were calculated using GraphPad Prism software.
The assay was performed as described in Example 43, with the following modifications. Following to coating the plates with Heparin-BSA, plates were washed as described. The compounds were dissolved in DMSO at 10 mM final concentration and further diluted prior to assay. DMSO concentration in the screening well was up to 2%. Individual compounds were co-incubated with Beta-amyloid peptides on plates containing immobilized heparin. Beta-amyloid (1-42) was purchased from rPeptide (Cat. No. A1163) and used to prepare oligomers according to Stine et al., 2003 (J Biol Chem. 278(13):11612-22) as follows. 1,1,1,3,3,3-Hexafluoro-2-propanol- (HFIP; Sigma Cat. No. 105228)-treated Beta amyloid (1-42) was dissolved in dry DMSO (Sigma Cat. No. D2650) to 5 mM concentration. Dissolved Beta amyloid (1-42) was then diluted to 100 μM in ice-cold cell culture medium (phenol red-free Ham's F-12; Caisson Labs, Cat. No. HFL05), followed immediately by vortexing for 30 seconds, and incubating at 4 degrees Celsius for 24 h. Resulting Beta amyloid (1-42) oligomers were centrifuged at 12,000 rpm for 10 min at 4 degree Celsius to remove aggregates. Oligomers were then quickly frozen and kept in aliquots at −80 degrees Celsius. Beta-amyloid (1-40) from rPeptide (Cat No. A1153) was dissolved in DMSO, quickly frozen and kept in aliquots at −80 degrees Celsius. Beta-amyloid (1-42) oligomers or Beta-amyloid (1-40) diluted in PBS (pH 6.5, supplemented with BSA, 0.1%) were added to the ELISA plate (100 μl per well) and incubated for 2 hours at RT with gentle shaking. Following the incubation, the plate was washed with de-ionized water and three times with PBS (pH 6.5) plus Tween. […]

Amyloid-beta(1-40) binding to heparin (HS-GAG), sequence (P05067 672-711): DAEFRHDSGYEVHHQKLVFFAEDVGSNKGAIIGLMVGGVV

Q: With Fc1ccc2c(N/N=C/c3ccc(CN4CCOCC4)cc3)ccnc2c1 [Compound 6, (E)-4-(4-((2-(7-fluoroquinolin-4-yl)hydrazono)methyl)benzyl)morpholine] as the molecule, how does the inhibition at 30 µM read?
A: > 30%

Q: Which inhibition at 30 µM does the source give for C[n+]1ccc(/C=N\Nc2ccnc3ccccc23)cc1 [Compound 9, (Z)-1-methyl-4-((2-(quinolin-4-yl)hydrazono)methyl)pyridin-1-ium iodide] here?
A: < 30%

same assay, conditions: Abeta40/Heparin Activity (IC-50), Abeta(1-40), co-incubation on heparin-BSA plates

Q: Which IC50 does the source give for Cc1ncn(-c2ccc(/C=N/Nc3ccnc4cc(Cl)ccc34)cc2)c1C [Compound 2, (E)-7-chloro-4-((E)-(4-(4,5-dimethyl-1H-imidazol-1-yl)benzylidene)hydrazono)-1,4-dihydroquinoline] here?
A: 22.9 µM

Q: Which IC50 does the source give for Clc1ccc2c(N/N=C/c3ccc(-n4cccn4)cc3)ccnc2c1 [Compound 3, (E)-4-((E)-(4-(1H-pyrazol-1-yl)benzylidene)hydrazono)-7-chloro-1,4-dihydroquinoline] here?
A: 2.75 µM

Q: With C[N+](C)(C)Cc1ccc(/C=N\Nc2ccnc3ccc(Cl)cc23)cc1 [Compound 4, (Z)-1-(4-((2-(6-chloroquinolin-4-yl)hydrazineylidene)methyl)phenyl)—N,N,N-trimethylmethanaminium iodide] as the molecule, how does the IC50 read?
A: 51.3 µM

Q: For Fc1ccc2c(N/N=C/c3ccc(-n4ccnc4)cc3)ccnc2c1 [Compound 5, (E)-4-(2-(4-(1H-imidazol-1-yl)benzylidene)hydrazinyl)-7-fluoroquinoline], which IC50 is on record?
A: 3.33 µM

Q: With CN1CCN(Cc2ccc(/C=N/Nc3ccnc4cc(Cl)ccc34)cc2)CC1 [Compound 7, (E)-7-chloro-4-(2-(4-((4-methylpiperazin-1-yl)methyl)benzylidene)hydrazinyl)quinolone] as the molecule, how does the IC50 read?
A: 25.2 µM

Q: For O=S1(=O)CCN(Cc2ccc(/C=N/Nc3ccnc4cc(F)ccc34)cc2)CC1 [Compound 10, (E)-4-(4-((2-(7-fluoroquinolin-4-yl)hydrazono)methyl)benzyl)thiomorpholine 1,1-dioxide], which IC50 is on record?
A: 35.6 µM

Q: With COc1ccc2c(NN=Cc3ccc(-n4ccnc4)c(C)c3)ccnc2c1 [Compound 12, 4-(2-(4-(1H-imidazol-1-yl)-3-methylbenzylidene)hydrazineyl)-7-methoxyquinoline] as the molecule, how does the IC50 read?
A: 17.9 µM

Q: Which IC50 does the source give for Clc1ccc2c(N/N=C/c3ccc(-n4ccnc4)nc3)ccnc2c1 [Compound 14, (E)-4-(2-((6-(1H-imidazol-1-yl)pyridin-3-yl)methylene)hydrazineyl)-7-chloroquinoline hydrochloride] here?
A: 7.77 µM

Q: With Cc1ncn(-c2ccc(/C=N\Nc3ncnc4cc(Cl)ccc34)cn2)c1C [Compound 15, 7-chloro-4-(2-((6-(4,5-dimethyl-1H-imidazol-1-yl)pyridin-3-yl)methylene)hydrazineyl)quinazoline hydrochloride] as the molecule, how does the IC50 read?
A: 23 µM

Q: Which IC50 does the source give for C/C(=N\Nc1ncnc2cc(Cl)ccc12)c1ccc(-n2cnc(C)c2C)nc1 [Compound 16, 7-chloro-4-(2-(1-(6-(4,5-dimethyl-1H-imidazol-1-yl)pyridin-3-yl)ethylidene)hydrazineyl)quinazoline phosphate] here?
A: 4.37 µM

Q: How did the IC50 turn out when C/C(=N\Nc1ncnc2cc(Cl)ccc12)c1ccc(-n2cc[n+](C)c2)nc1 [Compound 17, (E)-1-(5-(1-(2-(7-chloroquinazolin-4-yl)hydrazineylidene)ethyl)pyridin-2-yl)-3-methyl-1H-imidazol-3-ium iodide phosphoric acid salt] was run?
A: 28.1 µM

Q: Which IC50 does the source give for C/C(=N\Nc1ncnc2ccccc12)c1ccc(-n2cc(C)nc2C)nc1 [Compound 19, (E)-4-(2-(1-(6-(2,4-dimethyl-1H-imidazol-1-yl)pyridin-3-yl)ethylidene)hydrazineyl)quinazoline] here?
A: 10.2 µM

Q: CC(=NNc1ccnc2cc(Cl)ccc12)c1ccc(-n2cnc(C)c2C)nc1 [Compound 22, 7-chloro-4-(2-(1-(6-(4,5-dimethyl-1H-imidazol-1-yl)pyridin-3-yl)ethylidene)hydrazineyl)quinoline] was tested. Which IC50 did it give?
A: 16.3 µM

Q: Cc1ncn(-c2ccc(Nc3ncnc4cc(Cl)ccc34)cn2)c1C [Compound 25, 7-chloro-N-(6-(4,5-dimethyl-1H-imidazol-1-yl)pyridin-3-yl)quinazolin-4-amine] was tested. Which IC50 did it give?
A: 1.7 µM

Q: With C/C(=N\Nc1ncnc2cc(F)ccc12)c1ccc(-n2cc[n+](C)c2)nc1 [Compound 26, (E)-1-(5-(1-(2-(7-fluoroquinazolin-4-yl)hydrazineylidene)ethyl)pyridin-2-yl)-3-methyl-1H-imidazol-3-ium phosphoric acid salt] as the molecule, how does the IC50 read?
A: 10.2 µM

Q: C/C(=N\Nc1ncnc2cc(Cl)ccc12)c1ccc(-n2cc(C)nc2C)nc1 [Compound 27, (E)-7-chloro-4-(2-(1-(6-(2,4-dimethyl-1H-imidazol-1-yl)pyridin-3-yl)ethylidene)hydrazineyl)quinazoline hydrochloride] was tested. Which IC50 did it give?
A: 2.2 µM

same assay, conditions: Abeta(1-40), co-incubation on heparin-BSA plates; read-out: Abeta40/Heparin Activity (IC-50)

Q: Which IC50 does the source give for Cc1cc(-n2ccnc2)ccc1/C=N/Nc1ccnc2cc(Cl)ccc12 [Compound 1, (E)-4-((E)-(4-(1H-imidazol-1-yl)-2-methylbenzylidene)hydrazono)-7-chloro-1,4-dihydroquinoline] here?
A: 3.67 µM

Q: For C/C(=N\Nc1ncnc2cc(Cl)ccc12)c1ccc(-n2cc(C)nc2C)nc1 [Compound 18, (E)-7-chloro-4-(2-(1-(6-(2,4-dimethyl-1H-imidazol-1-yl)pyridin-3-yl)ethylidene)hydrazineyl)quinazoline phosphoric acid salt], which IC50 is on record?
A: 3.31 µM

Q: For C/C(=N\Nc1ncnc2cc(F)ccc12)c1ccc(-n2cnc(C)c2C)nc1 [Compound 21, (E)-4-(2-(1-(6-(4,5-dimethyl-1H-imidazol-1-yl)pyridin-3-yl)ethylidene)hydrazineyl)-7-fluoroquinazoline], which IC50 is on record?
A: 7.41 µM

Q: For C/C(=N\Nc1nncc2cc(Cl)ccc12)c1ccc(-n2cc(C)nc2C)nc1 [Compound 24, (E)-6-chloro-1-(2-(1-(6-(2,4-dimethyl-1H-imidazol-1-yl)pyridin-3-yl)ethylidene)hydrazineyl)phthalazine], which IC50 is on record?
A: 6.42 µM

same assay, conditions: read-out: Abeta40/Heparin Activity (% inhibition class)

Q: How did the inhibition at 30 µM turn out when C(=N\Nc1ccc2c3c(cccc13)CC2)/c1ccc(-n2ccnc2)cc1 [Compound 8, (E)-1-(4-((2-(1,2-dihydroacenaphthylen-5-yl)hydrazineylidene)methyl)phenyl)-1H-imidazole] was run?
A: < 30%

Q: Which inhibition at 30 µM does the source give for COc1cc2nccc(NN=Cc3ccc(-n4ccnc4)c(C)c3)c2cc1OC [Compound 11, 4-(2-(4-(1H-imidazol-1-yl)-3-methylbenzylidene)hydrazineyl)-6,7-dimethoxyquinoline hydrochloride] here?
A: > 30%

Q: COc1cc2nccc(N/N=C/c3ccc(-n4ccnc4)c(OC)c3)c2cc1OC [Compound 13, (E)-4-(2-(4-(1H-imidazol-1-yl)-3-methoxybenzylidene)hydrazineyl)-6,7-dimethoxyquinoline phosphate] was tested. Which inhibition at 30 µM did it give?
A: < 30%

Q: Which inhibition at 30 µM does the source give for CN1CCN(c2cc(Nc3ccnc4cc(Cl)ccc34)ccn2)CC1 [Compound 20, 7-chloro-N-(2-(4-methylpiperazin-1-yl)pyridin-4-yl)quinolin-4-amine] here?
A: < 30%

Q: CC(=NNc1ccnc2cc(Cl)ccc12)c1ccc(-n2cc[n+](C)c2)nc1 [Compound 23, 1-(5-(1-(2-(7-chloroquinolin-4-yl)hydrazineylidene)ethyl)pyridin-2-yl)-3-methyl-1H-imidazol-3-ium iodide] was tested. Which inhibition at 30 µM did it give?
A: > 30%
